Results as given in patent US6806283B2, “Selective serotonin receptor antagonists and therapeutic applications thereof” (Virginia Commonwealth University, priority 2002, dated 2004).
Read-outs that look alike come from different tables or passages of the source.

Columns and labels:
[1] = target: 5-HT2A serotonin receptor (Homo sapiens, UniProt P28223); experiment: 5-HT2A serotonin receptor radioligand binding assay (3H-ketanserin)
Method: Binding assays were conducted in which the affinity of each of the compounds of interest for the 5-HT2A serotonin receptor was tested. Assays were conducted with the 5-HT2A receptor in buffer consisting of 50 mM Tris-Cl, 0.5 mM EDTA, 5 mM MgCl2, pH=7.4.

[2] = target: H1 histamine receptor (Homo sapiens, UniProt P35367); experiment: H1 histamine receptor radioligand binding assay (3H-pyrilamine)
Chain of H1 histamine receptor (P35367 whole entry): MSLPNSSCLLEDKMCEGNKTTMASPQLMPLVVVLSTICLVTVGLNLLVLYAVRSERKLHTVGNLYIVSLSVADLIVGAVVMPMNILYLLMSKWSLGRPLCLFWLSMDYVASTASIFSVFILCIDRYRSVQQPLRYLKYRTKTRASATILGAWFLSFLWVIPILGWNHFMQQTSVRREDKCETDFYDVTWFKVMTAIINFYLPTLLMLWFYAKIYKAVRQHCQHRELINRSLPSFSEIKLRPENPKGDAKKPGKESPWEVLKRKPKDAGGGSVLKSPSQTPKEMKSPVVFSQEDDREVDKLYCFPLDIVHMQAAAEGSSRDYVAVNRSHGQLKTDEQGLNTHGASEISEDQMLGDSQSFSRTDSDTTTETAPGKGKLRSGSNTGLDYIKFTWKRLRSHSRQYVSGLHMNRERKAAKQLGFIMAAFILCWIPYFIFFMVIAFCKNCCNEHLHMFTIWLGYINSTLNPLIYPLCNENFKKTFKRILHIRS
Method: Binding assays were also conducted in which the affinity of selected compounds of interest for the H1 histamine receptor was tested. […] The H1 determinations used ^3H-pyrilamine as the radioligand with chlorpheniramine as the reference compound.

[3] = target: 5-HT2 receptor (Homo sapiens, UniProt P28223); experiment: Affinity for 5-HT2 receptors; type: binding
Chain of 5-HT2 receptor (P28223 whole entry): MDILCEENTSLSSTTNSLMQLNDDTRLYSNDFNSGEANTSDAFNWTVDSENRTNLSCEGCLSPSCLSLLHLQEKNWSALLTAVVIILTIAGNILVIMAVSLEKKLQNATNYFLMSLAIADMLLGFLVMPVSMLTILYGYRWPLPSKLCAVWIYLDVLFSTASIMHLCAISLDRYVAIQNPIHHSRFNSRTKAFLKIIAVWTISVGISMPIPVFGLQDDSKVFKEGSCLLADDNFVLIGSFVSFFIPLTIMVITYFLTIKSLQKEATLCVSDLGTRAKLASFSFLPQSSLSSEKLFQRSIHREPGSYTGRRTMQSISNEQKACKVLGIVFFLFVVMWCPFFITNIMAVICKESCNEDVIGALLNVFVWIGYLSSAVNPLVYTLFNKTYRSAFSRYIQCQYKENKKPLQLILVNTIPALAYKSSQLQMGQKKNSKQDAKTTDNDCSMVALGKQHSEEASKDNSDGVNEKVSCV

[4] = target: norepinephrine transporter (Homo sapiens, UniProt P23975); experiment: Affinity for norepinephrine transporter; type: binding
Chain of norepinephrine transporter (P23975 whole entry, species assumed): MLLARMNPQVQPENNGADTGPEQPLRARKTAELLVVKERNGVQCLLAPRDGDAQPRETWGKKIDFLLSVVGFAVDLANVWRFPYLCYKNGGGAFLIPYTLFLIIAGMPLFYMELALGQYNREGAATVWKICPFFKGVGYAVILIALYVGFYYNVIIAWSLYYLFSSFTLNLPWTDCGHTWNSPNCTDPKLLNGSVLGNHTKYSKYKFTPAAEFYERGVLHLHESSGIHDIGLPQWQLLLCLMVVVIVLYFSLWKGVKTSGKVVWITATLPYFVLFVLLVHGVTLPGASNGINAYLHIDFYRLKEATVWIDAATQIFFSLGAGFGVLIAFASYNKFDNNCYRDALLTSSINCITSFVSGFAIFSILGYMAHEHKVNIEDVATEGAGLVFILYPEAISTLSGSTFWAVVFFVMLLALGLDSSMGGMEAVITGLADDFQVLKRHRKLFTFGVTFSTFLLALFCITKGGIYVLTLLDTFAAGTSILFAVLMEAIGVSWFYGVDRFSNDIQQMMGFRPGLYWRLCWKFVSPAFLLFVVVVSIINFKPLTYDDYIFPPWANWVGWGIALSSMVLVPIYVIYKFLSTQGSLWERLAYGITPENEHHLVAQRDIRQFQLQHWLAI

[5] = target: T1, 5-HT2c receptor (Homo sapiens, UniProt P28335); experiment: Affinity for 5-HT2c receptor; type: binding
T1 sequence (P28335 33-458): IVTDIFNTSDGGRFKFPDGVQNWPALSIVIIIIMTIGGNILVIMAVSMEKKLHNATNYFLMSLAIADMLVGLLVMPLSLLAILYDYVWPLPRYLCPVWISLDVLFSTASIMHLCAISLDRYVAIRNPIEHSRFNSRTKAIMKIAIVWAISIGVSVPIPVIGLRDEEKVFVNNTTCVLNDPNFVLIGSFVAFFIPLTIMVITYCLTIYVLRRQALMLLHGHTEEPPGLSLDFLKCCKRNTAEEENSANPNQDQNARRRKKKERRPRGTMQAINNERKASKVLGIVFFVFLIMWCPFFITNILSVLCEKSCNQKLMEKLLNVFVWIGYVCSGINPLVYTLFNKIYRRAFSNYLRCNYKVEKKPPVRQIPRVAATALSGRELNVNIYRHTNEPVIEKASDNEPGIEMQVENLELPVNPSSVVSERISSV

[6] = target: serotonin transporter (Homo sapiens, UniProt P31645); experiment: Affinity for serotonin transporter; type: binding
Chain of serotonin transporter (P31645 whole entry): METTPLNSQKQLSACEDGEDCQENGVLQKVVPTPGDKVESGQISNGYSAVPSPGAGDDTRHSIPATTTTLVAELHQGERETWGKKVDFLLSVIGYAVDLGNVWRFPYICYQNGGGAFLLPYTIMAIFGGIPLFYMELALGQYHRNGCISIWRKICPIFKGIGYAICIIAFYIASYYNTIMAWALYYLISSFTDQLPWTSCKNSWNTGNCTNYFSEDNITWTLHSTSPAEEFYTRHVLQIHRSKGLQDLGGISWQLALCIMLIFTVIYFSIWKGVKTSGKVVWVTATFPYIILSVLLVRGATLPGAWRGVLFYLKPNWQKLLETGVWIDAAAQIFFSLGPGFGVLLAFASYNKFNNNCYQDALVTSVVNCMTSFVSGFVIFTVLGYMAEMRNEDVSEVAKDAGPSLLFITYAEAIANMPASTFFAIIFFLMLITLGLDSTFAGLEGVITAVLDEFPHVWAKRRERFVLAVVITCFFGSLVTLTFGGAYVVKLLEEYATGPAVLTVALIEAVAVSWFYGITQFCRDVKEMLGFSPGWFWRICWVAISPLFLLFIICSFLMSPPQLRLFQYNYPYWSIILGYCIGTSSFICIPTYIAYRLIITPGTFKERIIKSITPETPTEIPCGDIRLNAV

[7] = target: dopamine D2 receptor (Homo sapiens, UniProt P14416); experiment: Affinity for dopamine D2 receptor; type: binding
Chain of dopamine D2 receptor (P14416 whole entry, species assumed): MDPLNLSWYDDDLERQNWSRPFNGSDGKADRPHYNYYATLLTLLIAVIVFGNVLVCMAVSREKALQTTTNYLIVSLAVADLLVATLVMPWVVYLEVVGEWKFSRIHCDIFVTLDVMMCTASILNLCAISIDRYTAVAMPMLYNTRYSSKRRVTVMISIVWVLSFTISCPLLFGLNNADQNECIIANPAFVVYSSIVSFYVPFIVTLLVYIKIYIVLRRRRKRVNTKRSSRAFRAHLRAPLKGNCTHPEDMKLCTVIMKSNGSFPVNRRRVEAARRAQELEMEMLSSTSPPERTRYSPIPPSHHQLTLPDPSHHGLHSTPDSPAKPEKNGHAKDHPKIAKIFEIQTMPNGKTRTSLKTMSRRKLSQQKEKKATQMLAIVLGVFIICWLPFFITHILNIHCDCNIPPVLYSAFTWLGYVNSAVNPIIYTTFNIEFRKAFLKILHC

[8] = 3H-pyrilamine radioligand, chlorpheniramine reference, read-out: H1 Ki
[9] = in words, read-out: affinity class for histamine H1 receptor

Chain of 5-HT2A serotonin receptor (P28223 whole entry): as the sequence (P28223 whole entry) above

**Q.** With c1ccc(CCCc2ccc3c(c2)Cc2ccccc2C32CCNC2)cc1 (stereo not drawn) [Compound 23, 3-(3-Phenylpropyl)-9,9-[spiro-3′-pyrrolidinyl]-9,10-dihydroanthracene] as the compound, how does the Ki [1] read?
**A.** The Ki was 3.5 nM.

**Q.** Which Ki [1] does the source give for c1ccc(CN2CCC3(C2)c2ccccc2Cc2ccccc23)cc1 [Compound 7, Spiro[9,10-dihydroanthracene]-9,3′-(1-benzyl)-pyrrolidine] here?
**A.** Its Ki is 220 nM.

**Q.** Which results are given for c1ccc2c(c1)Oc1ccccc1C21CCNC1 [Compound 30, Spiro[xanthenyl]-9,3′-pyrrolidine]?
**A.** Ki [2, 8]: 51 nM; Ki [2, 9]: ≤ 100 nM; Ki [1]: 40 nM

**Q.** For CCCCCCc1ccc2c(c1)Cc1ccccc1C21CCN(Cc2ccccc2)C1 (stereo not drawn) [Compound 20, 3-n-Hexyl-9,9-[spiro-3′-(n-benzyl)-pyrrolidinyl]-9,10-dihydroanthracene], which Ki [1] is on record?
**A.** The Ki was 2030 nM.

**Q.** For CN1CCC2(C1)c1ccccc1Cc1ccccc12 [Compound 6, Spiro[9,10-dihydroanthracene]-9,3′-(1-methyl)-pyrrolidine], which Ki [1] is on record?
**A.** Its Ki is 46 nM.

**Q.** Which Ki [2, 8] does the source give for c1ccc2c(c1)Sc1ccccc1C21CCNC1 [Compound 36, Spiro[thioxanthenyl]-9,3′-pyrrolidine] here?
**A.** Its Ki is 6 nM.

**Q.** And the Ki [2, 9]?
**A.** The Ki was at most 100 nM.

**Q.** What about the Ki [1] of the same compound?
**A.** Its Ki is 5 nM.

**Q.** With CC1(C)c2ccccc2C2(CCNC2)c2ccccc21 [Compound 12, Spiro[-(10,10-dimethyl)-9,10-dihydroanthracene]-9,3′-pyrrolidine] as the compound, how does the Ki [1] read?
**A.** The Ki was 68 nM.

**Q.** How did the Ki [1] turn out when Oc1ccc2c(c1)Cc1ccccc1C21CCNC1 (stereo not drawn) [Compound 19, Spiro[-(3-hydroxy)-9,10-dihydroanthracene]-9,3′-pyrrolidine] was run?
**A.** The Ki was 9.2 nM.

**Q.** How did the Ki [1] turn out when c1ccc(CCCc2ccc3c(c2)Cc2ccccc2C32CCN(Cc3ccccc3)C2)cc1 (stereo not drawn) [Compound 22, 3-(3-Phenylpropyl)-9,9-[spiro-3′-(n-benzyl)-pyrrolidinyl]-9,10-dihydroanthracene] was run?
**A.** Its Ki is 998 nM.

**Q.** Oc1ccc2c(c1)Cc1ccccc1C21CCN(Cc2ccccc2)C1 (stereo not drawn) [Compound 18, 3-Hydroxy-9,9-[spiro-3′-(n-benzyl)-pyrrolidinyl]-9,10-dihydroanthracene] was tested. Which Ki [1] did it give?
**A.** The Ki was 330 nM.

**Q.** Which Ki [2, 8] does the source give for CCCCCCc1ccc2c(c1)Cc1ccccc1C21CCNC1 (stereo not drawn) [Compound 21, 3-n-Hexyl-9,9-[spiro-3′-pyrrolidinyl]-9,10-dihydroanthracene] here?
**A.** The Ki was 1600 nM.

**Q.** What about the Ki [1] of the same compound?
**A.** The Ki was 6 nM.

**Q.** Which Ki [2, 8] does the source give for COc1ccc2c(c1)Cc1ccccc1C21CCN(Cc2ccccc2)C1 (stereo not drawn) [Compound 16, 3-Methoxy-9,9-[spiro-3′-(n-benzyl)-pyrrolidinyl]-9,10-dihydroanthracene] here?
**A.** The Ki was 74 nM.

**Q.** And the Ki [2, 9]?
**A.** Its Ki is at most 100 nM.

**Q.** What about the Ki [1] of the same compound?
**A.** Its Ki is 1000 nM.

**Q.** c1ccc(-c2ccc3c(c2)Cc2ccccc2C32CCNC2)cc1 (stereo not drawn) [Compound 25, 3-(3-Phenyl)-9,9-[spiro-3′-pyrrolidinyl]-9,10-dihydroanthracene] was tested. Which Ki [1] did it give?
**A.** Its Ki is 18 nM.

**Q.** For COc1ccc2c(c1)Cc1ccccc1C21CCNC1 (stereo not drawn) [Compound 17, 3-Methoxy-9,9-[spiro-3′-pyrrolidinyl]-9,10-dihydro-anthracene], which Ki [2, 8] is on record?
**A.** The Ki was 40 nM.

**Q.** What about the Ki [2, 9] of the same compound?
**A.** The Ki was at most 100 nM.

**Q.** What about the Ki [1] of the same compound?
**A.** The Ki was 3.7 nM.

**Q.** What does the source list for c1ccc2c(c1)Cc1ccccc1C21CCNC1 [Compound 5, Spiro[9,10-dihydroanthracene]-9,3′-pyrrolidine]?
**A.** Ki [3]: 1 to 500 nM; Ki ([3]; read-out: Ki for 5-HT2 receptors): 4 nM; Ki [4]: > 10000 nM; Ki [5]: 1 to 500 nM; Ki ([5]; read-out: Ki for 5-HT2c receptor): 24 nM; Ki [2, 8]: 8.5 nM; Ki [2, 9]: ≤ 100 nM; Ki [1]: 3.8 nM; Ki [6]: > 10000 nM; Ki [7]: 5040 nM
